# Measurements from patent EP1447414B1, “Antagonist peptides of carcinoembryonic antigen (CEA)” (THE GOVERNMENT OF THE UNITED STATES OF AMERICA, as …, priority 1997, dated 2007).
# No end group written: not given here.
# System: CEA CTL T-Vac8
# Experiment: CTL cytotoxicity screening of the CAP1 analog panel, 111In release from peptide-incubated C1R-A2 cells
# Type: cell-based, human
# Settings: peptide at 1, 0.1 and 0.01 µg/ml, E:T=1.45:1, isotope release after 4 hours
row,Compound,activation of T-Vac8 cytotoxicity (lysis of peptide-incubated targets)
1,CC(C)C[C@H](NC(=O)[C@H](CC(N)=O)NC(=O)[C@H](CC(C)C)NC(=O)[C@H](CC(=O)O)NC(=O)[C@H](C)NC(=O)CNC(=O)[C@H](CO)NC(=O)[C@H](CC(C)C)NC(=O)[C@@H](N)Cc1ccc(O)cc1)C(=O)O [CAP1-6D],activated T-Vac8 cytotoxicity and seemed to be equal to or better than CAP1
2,CC[C@H](C)[C@H](NC(=O)[C@H](CC(N)=O)NC(=O)[C@H](C)NC(=O)CNC(=O)[C@H](CO)NC(=O)[C@H](CC(C)C)NC(=O)[C@@H](N)Cc1ccc(O)cc1)C(=O)N[C@@H](CC(N)=O)C(=O)N[C@@H](CC(C)C)C(=O)O [CAP1-7I],appeared to be active
3,YLSGACLNL [CAP1-6C],activated T-Vac8 cytotoxicity and seemed to be equal to or better than CAP1
4,YLSGFNLNL [CAP1-5F],"provided stimulation, albeit at reduced levels compared to CAP1 itself"
5,YLSGINLNL [CAP1-5I],"provided stimulation, albeit at reduced levels compared to CAP1 itself"
6,YLSGSNLNL [CAP1-5S],"provided stimulation, albeit at reduced levels compared to CAP1 itself"
